Source: patent US5126327A, “Melanocyte-stimulating hormone inhibitor and external preparation containing the same” (Lion Corporation, priority 1989, dated 1992)
Residues, ends and D or L forms follow the SMILES beside them. No end group written: not given here.

Assays:
[1] = tested on: hair follicle melanocytes; assay: MSH-antagonizing effect: eumelanin production in cultured skin grafts, specimen pre-incubated with grafts before α-MSH (Example 2); format: cell-based, yellow mice (C 57 BL/6J-A'); design: key: ±: weak; +: strong; details: skin grafts cultured in Ham's F-12 at 37° C. for 2 days; for Eumelanin production, 10^-9 M of α-MSH and 10^-8 M of specimen added: microscope observation at hair follicles
Description: (§1) Skin grafts (about 1 mm×1 mm) of yellow mice (C 57 BL/6J-A') (7.5 days after the birth) containing hair follicle melanocytes were cultured in Ham's F-12 culture medium at 37° C. for 2 days. The culture media used were: (i) Ham's F-12 medium containing α-MSH, (ii) that containing both α-MSH and the compound of the present invention, i.e., the compound of the present invention and the skin grafts had been incubated in a Ham's F-12 medium so as to interact the compounds with a receptor on the melanocyte surface of the skin and then the resultant was contacted with α-MSH in a fresh Ham's F-12 medium and (iii) that containing no additive. After completion of the culture followed by fixation with 10% formalin, specimens were prepared by an ordinary method.

[2] = tested on: pigmented spots (chloasmata or freckles); assay: External preparation applied to pigmented spots of patients; format: in vivo, human; details: for Fading/relief of pigmented spots versus comparative cream / Skin trouble during or after use of the cream: cream containing 0.001 wt. % of compound; for Fading/relief of pigmented spots versus comparative cream: applied twice a day for two months, eight male and female patients; for Skin trouble during or after use of the cream: twice a day for two months
Description: The cream thus prepared was applied to pigmented spots (chloasmata or freckles) of eight male and female patients twice a day (in the morning and evening) for two months.

[3] = tested on: hair follicle melanocytes; assay: MSH-inhibiting effect: eumelanin production in cultured skin grafts, specimen pre-mixed with α-MSH (Example 10); format: cell-based, yellow mice (C 57 BL/6J-A'); design: key: ±: weak; +: strong; details: for Eumelanin production, 10^-9 M of α-MSH and 10^-8 M of specimen added: α-MSH and specimen mixed first, then skin grafts added, Ham's F-12, 37° C., 2 days
Description: as §1, with “i.e., α-MSH and” for “i.e.,”, “were mixed” for “and the skin grafts had been incubated in a Ham's F-12 medium”, “each other” for “the compounds with a receptor on the melanocyte surface of the skin”, “skin grafts were added thereto,” for “resultant was contacted with α-MSH in a fresh Ham's F-12 medium”

**Q.** Which “Eumelanin production, 10^-9 M of α-MSH and 10^-8 M of specimen added” value (shortened to “Eumelanin production … of specimen added”) [1] does the source give for `CSCC[C@H](NC(C)=O)C(=O)N[C@@H](CCC(=O)O)C(=O)N[C@@H](Cc1c[nH]cn1)C(=O)N[C@@H](CO)C(=O)N[C@@H](CCCNC(=N)N)C(=O)N[C@@H](Cc1c[nH]c2ccccc12)C(=O)NCC(=O)N[C@@H](CCCCN)C(N)=O` [Compound No. 14, Ac--Met--Glu--His--Ser--Arg--Trp--Gly--Lys--NH2] (Ac-MEHSRWGK-NH2) here?
**A.** ±

**Q.** `CSCC[C@H](NC(=O)[C@H](CO)NC(=O)[C@H](Cc1ccc(O)cc1)NC(=O)[C@H](CO)NC(C)=O)C(=O)N[C@@H](CCC(=O)O)C(=O)N[C@@H](Cc1c[nH]cn1)C(=O)N[C@@H](CO)C(=O)N[C@@H](CCCNC(=N)N)C(=O)N[C@@H](Cc1c[nH]c2ccccc12)C(=O)NCC(=O)N[C@@H](CCCCN)C(=O)N1CCC[C@H]1C(=O)N[C@H](C(N)=O)C(C)C` [Compound No. 40, Ac--Ser--Tyr--Ser--Met--Glu--His--Ser--Arg--Trp--Gly--Lys--Pro--Val--NH2] was tested. Which “Eumelanin production … of specimen added” value [1] did it give?
**A.** ±

**Q.** What about the “Fading/relief of pigmented spots versus comparative cream” value [2] of the same molecule?
**A.** far more faded

**Q.** And the “Skin trouble during or after use of the cream” value [2]?
**A.** no skin trouble was observed

**Q.** How did the “Skin trouble during or after use of the cream” value [2] turn out when `CC[C@H](C)[C@H](N)C(=O)N[C@@H](CC(C)C)C(=O)N[C@@H](CC(C)C)C(=O)N[C@@H](C)C(=O)N[C@@H](CS)C(=O)N[C@@H](C)C(=O)N[C@@H](CCCNC(=N)N)C(=O)N[C@H](C(=O)N[C@@H](CO)C(=O)N1CCC[C@H]1C(=O)NCC(=O)N[C@@H](CCCNC(=N)N)C(=O)N[C@@H](CCCNC(=N)N)C(=O)O)[C@@H](C)CC` [Compound No. 113, Ile--Leu--Leu--Ala--Cys--Ala--Arg--Ile--Ser--Pro--Gly--Arg--Arg] (H-ILLACARISPGRR-OH) was run?
**A.** no skin trouble was observed

**Q.** `CC[C@H](C)[C@H](NC(C)=O)C(=O)N[C@@H](CC(C)C)C(=O)N[C@@H](CC(C)C)C(=O)N[C@@H](C)C(=O)N[C@@H](CS)C(=O)N[C@@H](C)C(=O)N[C@@H](CCCNC(=N)N)C(=O)N[C@H](C(=O)N[C@@H](CO)C(=O)N1CCC[C@H]1C(=O)NCC(=O)N[C@@H](CCCNC(=N)N)C(=O)N[C@@H](CCCNC(=N)N)C(N)=O)[C@@H](C)CC` [Compound No. 116, Ac--Ile--Leu--Leu--Ala--Cys--Ala--Arg--Ile--Ser--Pro--Gly--Arg--Arg--NH2] (Ac-ILLACARISPGRR-NH2) was tested. Which “Eumelanin production … of specimen added” value [3] did it give?
**A.** ±

**Q.** What about the “Relief of pigmented spots versus comparative milky lotion” value ([2]; milky lotion containing 0.0001 % of compound, same method as Example 3) of the same molecule?
**A.** relieved the pigmented spots

**Q.** For `CC[C@H](C)[C@H](NC(=O)[C@H](CC(C)C)NC(=O)[C@H](CC(C)C)NC(=O)[C@H](CC(C)C)NC(=O)[C@H](CCC(N)=O)NC(=O)[C@H](CC(C)C)NC(=O)[C@H](C)NC(=O)[C@H](Cc1c[nH]cn1)NC(=O)[C@@H](N)CC(C)C)C(=O)N[C@@H](CC(C)C)C(=O)N[C@@H](CC(C)C)C(=O)N[C@@H](C)C(=O)N[C@@H](CS)C(=O)N[C@@H](C)C(=O)N[C@@H](CCCNC(=N)N)C(=O)N[C@H](C(=O)N[C@@H](CO)C(=O)N1CCC[C@H]1C(=O)NCC(=O)N[C@@H](CCCNC(=N)N)C(=O)N[C@@H](CCCNC(=N)N)C(=O)O)[C@@H](C)CC` [Compound No. 132, Leu--His--Ala--Leu--Gln--Leu--Leu--Leu--Ile--Leu--Leu--Ala--Cys--Ala--Arg--Ile--Ser--Pro--Gly--Arg--Arg] (H-LHALQLLLILLACARISPGRR-OH), which “Skin trouble during or after use of the cream” value [2] is on record?
**A.** no skin trouble was observed

**Q.** How did the “Eumelanin production … of specimen added” value [3] turn out when `CC[C@H](C)[C@H](NC(=O)[C@H](CC(C)C)NC(=O)[C@H](CC(C)C)NC(=O)[C@H](CC(C)C)NC(=O)[C@H](CCC(N)=O)NC(=O)[C@H](CC(C)C)NC(=O)[C@H](C)NC(=O)[C@H](Cc1c[nH]cn1)NC(=O)[C@H](CC(C)C)NC(C)=O)C(=O)N[C@@H](CC(C)C)C(=O)N[C@@H](CC(C)C)C(=O)N[C@@H](C)C(=O)N[C@@H](CS)C(=O)N[C@@H](C)C(=O)N[C@@H](CCCNC(=N)N)C(=O)N[C@H](C(=O)N[C@@H](CO)C(=O)N1CCC[C@H]1C(=O)NCC(=O)N[C@@H](CCCNC(=N)N)C(=O)N[C@@H](CCCNC(=N)N)C(N)=O)[C@@H](C)CC` [Compound No. 135, Ac--Leu--His--Ala--Leu--Gln--Leu--Leu--Leu--Ile--Leu--Leu--Ala--Cys--Ala--Arg--Ile--Ser--Pro--Gly--Arg--Arg--NH2] (Ac-LHALQLLLILLACARISPGRR-NH2) was run?
**A.** ±

**Q.** Which “Eumelanin production … of specimen added” value [1] does the source give for “Ac--Cys--Cys--Trp--Arg--Ser--His--Gln--Pro--NH2 (Ac-CCWRSHQP-NH2; cysteine pairing not given here) [compound 74]” here?
**A.** ±

**Q.** Which results are given for “Ac--Cys--His--Cys--Cys--Trp--Arg--Ser--His--Gln--Pro--Ala--Arg--Pro--NH2 (Ac-CHCCWRSHQPARP-NH2; cysteine pairing not given here) [Compound No. 85]”?
**A.** Eumelanin production, 10^-9 M of α-MSH and 10^-8 M of specimen added [1]: ±; Fading/relief of pigmented spots versus comparative cream [2]: relieved the pigmented spots

**Q.** How did the “Eumelanin production, 10^-9 M of α-MSH added” value ([1]; α-MSH alone) turn out when “α-MSH: melanocyte-stimulating hormone (melanotropin), peptide hormone that activates melanocytes; stimulus in the skin graft test (SYSMEHFRWGKPV; ends and bridges not checked; UniProt P01189 138-150, looked up) [reference compound]” was run?
**A.** +

**Q.** And the “Eumelanin production, 10^-9 M of α-MSH added” value ([3]; α-MSH alone, skin grafts cultured in Ham's F-12 at 37° C. for 2 days)?
**A.** +
